Measured values published in ChEMBL document CHEMBL1687859, “Therapeutic efficacy of halocidin-derived peptide HG1 in a mouse model of surgical wound infection with methicillin-resistant Staphylococcus aureus” (Antimicrob Agents Chemother, 2011).
Converted amounts (≈) assume the structure as drawn. The source made the active and inactive calls. The rule behind the calls is not given here. Bridge positions count the residues as written; N and C are the ends. Peptide text beside a SMILES is read from it. I, II: the chains in the order shown.

What was measured:
[1] = system: Zone of skin; test: Drug penetration in ICR mouse skin administered topically using plastic cylinder by immunoblotting; assay type: ADME, tissue-based; settings: in vivo, topical_or_ocular
[2] = system: Staphylococcus aureus; test: Antibacterial activity against ethidium bromide-labeled methicillin-resistant Staphylococcus aureus infected in ICR mouse skin administered topically after 4 hrs by confocal microscopic analysis; assay type: functional, organism-based
[3] = system: Zone of skin; test: Drug penetration in ICR mouse skin administered topically using plastic cylinder by HPLC analysis; assay type: ADME, tissue-based; settings: in vivo, topical_or_ocular
[4] = system: Staphylococcus aureus; test: Antibacterial activity against methicillin-resistant Staphylococcus aureus infected in ICR mouse surgical wound model assessed as reduction of CFU administered topically every 12 hrs for 5 days; assay type: functional
[5] = system: Zone of skin; test: Drug penetration in ICR mouse skin administered topically using plastic cylinder by fluorescence microscopy; assay type: ADME, tissue-based; settings: in vivo, topical_or_ocular
[6] = system: Zone of skin; test: Drug penetration in ethidium bromide-labeled methicillin-resistant Staphylococcus aureus infected ICR mouse skin administered topically after 4 hrs by confocal microscopic analysis; assay type: ADME, tissue-based; settings: in vivo, topical_or_ocular
[7] = system: Staphylococcus aureus; test: Drug binding to ethidium bromide-labeled methicillin-resistant Staphylococcus aureus infected in ICR mouse skin administered topically after 4 hrs by confocal microscopic analysis; assay type: ADME, organism-based; settings: in vivo, topical_or_ocular
[8] = system: Staphylococcus aureus; test: Antibacterial activity against methicillin-resistant Staphylococcus aureus; assay type: functional

Structure (SMILES): CC(C)C[C@H](NC(=O)CNC(=O)[C@H](Cc1cnc[nH]1)NC(=O)[C@H](Cc1cnc[nH]1)NC(=O)[C@H](CC(C)C)NC(=O)[C@H](CC(C)C)NC(=O)[C@H](C)NC(=O)[C@H](CC(N)=O)NC(=O)[C@H](CC(C)C)NC(=O)[C@H](Cc1c[nH]c2ccccc12)NC(=O)[C@@H](N)CCCCN)C(=O)N[C@@H](CC(N)=O)C(=O)N[C@@H](CSSC[C@H](NC(=O)[C@H](CC(N)=O)NC(=O)[C@H](CC(C)C)NC(=O)CNC(=O)[C@H](Cc1cnc[nH]1)NC(=O)[C@H](Cc1cnc[nH]1)NC(=O)[C@H](CC(C)C)NC(=O)[C@H](CC(C)C)NC(=O)[C@H](C)NC(=O)[C@H](CC(N)=O)NC(=O)[C@H](CC(C)C)NC(=O)[C@H](Cc1c[nH]c2ccccc12)NC(=O)[C@@H](N)CCCCN)C(=O)N[C@@H](C)C(=O)N[C@@H](CCCCN)C(=O)NCC(=O)N[C@H](C(=O)N[C@@H](CC(C)C)C(=O)N[C@@H](C)C(N)=O)C(C)C)C(=O)N[C@@H](C)C(=O)N[C@@H](CCCCN)C(=O)NCC(=O)N[C@H](C(=O)N[C@@H](CC(C)C)C(=O)N[C@@H](C)C(N)=O)C(C)C (I: H-KWLNALLHHGLNCAKGVLA-NH2 / II: H-KWLNALLHHGLNCAKGVLA-NH2; disulfide I:13-II:13)
- Drug uptake [1]: Active
- Activity [2]: Active
- Drug uptake [3]: Active
- CFU [4]: 3
- Drug uptake [5]: Active
- Drug uptake [6]: Active
- Activity [7]: Active
- MIC [8]: 4 µg/mL (≈ 0.973 µM)
